Measurements from ChEMBL document CHEMBL5120874, “Tanzawaic Acid Derivatives: Fungal Polyketides from the Deep-Sea Coral-Derived Endozoic Penicillium steckii AS-324” (2022).
Converted amounts (≈) assume the structure as drawn.

Columns and labels:
Format in all cases: functional
[1] = tested on: Vibrio anguillarum; test: Antibacterial activity against Vibrio anguillarum QDIO-6 assessed as inhibition of bacterial growth by serial dilution method
[2] = tested on: Aeromonas hydrophila; test: Antibacterial activity against Aeromonas hydrophila QDIO-1 assessed as inhibition of bacterial growth by serial dilution method
[3] = tested on: Micrococcus luteus; test: Antibacterial activity against Micrococcus luteus QDIO-3 assessed as inhibition of bacterial growth by serial dilution method
[4] = tested on: Vibrio alginolyticus; test: Antibacterial activity against Vibrio alginolyticus QDIO-5 assessed as inhibition of bacterial growth by serial dilution method
[5] = tested on: Vibrio parahaemolyticus; test: Antibacterial activity against Vibrio parahaemolyticus QDIO-8 assessed as inhibition of bacterial growth by serial dilution method
[6] = tested on: Edwardsiella tarda; test: Antibacterial activity against Edwardsiella tarda QDIO-2 assessed as inhibition of bacterial growth by serial dilution method
[7] = tested on: Escherichia coli; test: Antibacterial activity against Escherichia coli EMBLC-1 assessed as inhibition of bacterial growth by serial dilution method
[8] = tested on: Pseudomonas aeruginosa; test: Antibacterial activity against Pseudomonas aeruginosa QDIO-4 assessed as inhibition of bacterial growth by serial dilution method

CO[C@]1(C)C=C[C@H]2C[C@@H](CO)C[C@@H](C)[C@@H]2[C@H]1/C=C/C=C/C(=O)O
MIC [1]: 8 µg/mL (≈ 25 µM) | MIC [2]: > 64 µg/mL | MIC [3]: > 64 µg/mL | MIC [4]: > 64 µg/mL | MIC [5]: 64 µg/mL (≈ 200 µM) | MIC [6]: > 64 µg/mL | MIC [7]: > 64 µg/mL | MIC [8]: > 64 µg/mL

Cc1ccc2c(c1/C=C/C=C/C(=O)O)[C@H](C)C[C@H](CO)C2
MIC [1]: 4 µg/mL (≈ 14 µM) | MIC [2]: > 64 µg/mL | MIC [3]: > 64 µg/mL | MIC [4]: > 64 µg/mL | MIC [5]: 64 µg/mL (≈ 223 µM) | MIC [6]: > 64 µg/mL | MIC [7]: > 64 µg/mL | MIC [8]: > 64 µg/mL

C[C@@H]1C[C@H](CO)C[C@@H]2C=C[C@@](C)(O)[C@](O)(/C=C/C=C/C(=O)O)[C@@H]12
MIC [1]: 8 µg/mL (≈ 24.8 µM) | MIC [2]: > 64 µg/mL | MIC [3]: > 64 µg/mL | MIC [4]: 32 µg/mL (≈ 99.3 µM) | MIC [5]: 64 µg/mL (≈ 199 µM) | MIC [6]: > 64 µg/mL | MIC [7]: > 64 µg/mL | MIC [8]: > 64 µg/mL

Cc1ccc2cc(CO)cc(C)c2c1/C=C/C=C/C(=O)O
MIC [1]: > 64 µg/mL | MIC [2]: > 64 µg/mL | MIC [3]: 2 µg/mL (≈ 7.08 µM) | MIC [4]: 16 µg/mL (≈ 56.7 µM) | MIC [5]: 32 µg/mL (≈ 113 µM) | MIC [6]: 64 µg/mL (≈ 227 µM) | MIC [7]: 64 µg/mL (≈ 227 µM) | MIC [8]: > 64 µg/mL

Cc1ccc2c(c1/C=C/C=C/C(=O)O)[C@H](C)C[C@@](C)(O)C2
MIC [1]: > 64 µg/mL | MIC [2]: > 64 µg/mL | MIC [3]: > 64 µg/mL | MIC [4]: > 64 µg/mL | MIC [5]: > 64 µg/mL | MIC [6]: > 64 µg/mL | MIC [7]: > 64 µg/mL | MIC [8]: 16 µg/mL (≈ 55.9 µM)

Cc1ccc2c(c1/C=C/C=C/C(=O)O)[C@H](C)C[C@@](C)(O)C2=O
MIC [1]: 4 µg/mL (≈ 13.3 µM) | MIC [2]: > 64 µg/mL | MIC [3]: > 64 µg/mL | MIC [4]: > 64 µg/mL | MIC [5]: 64 µg/mL (≈ 213 µM) | MIC [6]: > 64 µg/mL | MIC [7]: 64 µg/mL (≈ 213 µM) | MIC [8]: > 64 µg/mL

C[C@H]1C=C[C@H]2C[C@@H](CO)C[C@](C)(O)[C@@H]2[C@H]1/C=C/C=C/C(=O)O
MIC [1]: > 64 µg/mL | MIC [2]: > 64 µg/mL | MIC [3]: > 64 µg/mL | MIC [4]: > 64 µg/mL | MIC [5]: > 64 µg/mL | MIC [6]: > 64 µg/mL | MIC [7]: > 64 µg/mL | MIC [8]: 4 µg/mL (≈ 13.1 µM)

CO[C@@]1(C)C=C[C@H]2C[C@@H](CO)C[C@@H](C)[C@@H]2[C@H]1/C=C/C=C/C(=O)O
MIC [1]: > 64 µg/mL | MIC [2]: > 64 µg/mL | MIC [3]: > 64 µg/mL | MIC [4]: 32 µg/mL (≈ 99.9 µM) | MIC [5]: > 64 µg/mL | MIC [6]: > 64 µg/mL | MIC [7]: 8 µg/mL (≈ 25 µM) | MIC [8]: > 64 µg/mL

Cc1cc(C)c2c(/C=C/C=C/C(=O)O)c(CO)ccc2c1
MIC [1]: > 64 µg/mL | MIC [2]: 64 µg/mL (≈ 227 µM) | MIC [3]: > 64 µg/mL | MIC [4]: 32 µg/mL (≈ 113 µM) | MIC [5]: 64 µg/mL (≈ 227 µM) | MIC [6]: > 64 µg/mL | MIC [7]: > 64 µg/mL | MIC [8]: > 64 µg/mL

C[C@@H]1C[C@@H]2C=C[C@H](C)[C@H](/C=C/C=C/C(=O)O)[C@H]2[C@@](C)(O)C1
MIC [1]: > 64 µg/mL | MIC [2]: > 64 µg/mL | MIC [3]: > 64 µg/mL | MIC [4]: 32 µg/mL (≈ 110 µM) | MIC [5]: 64 µg/mL (≈ 220 µM) | MIC [6]: > 64 µg/mL | MIC [7]: 64 µg/mL (≈ 220 µM) | MIC [8]: > 64 µg/mL

CC1C=C[C@H]2C[C@@H](CO)C[C@@H](C)[C@@H]2[C@H]1/C=C/C=C/C(=O)O (stereo not given in full)
MIC [1]: > 64 µg/mL | MIC [2]: 64 µg/mL (≈ 220 µM) | MIC [3]: 8 µg/mL (≈ 27.5 µM) | MIC [4]: 8 µg/mL (≈ 27.5 µM) | MIC [5]: > 64 µg/mL | MIC [6]: > 64 µg/mL | MIC [7]: 64 µg/mL (≈ 220 µM) | MIC [8]: > 64 µg/mL

O=C(N[C@H](CO)[C@H](O)c1ccc([N+](=O)[O-])cc1)C(Cl)Cl [CHLORAMPHENICOL]
MIC [1]: 2 µg/mL (≈ 6.19 µM) | MIC [2]: 1 µg/mL (≈ 3.09 µM) | MIC [3]: 0.5 µg/mL (≈ 1.55 µM) | MIC [4]: 2 µg/mL (≈ 6.19 µM) | MIC [5]: 1 µg/mL (≈ 3.09 µM) | MIC [6]: 2 µg/mL (≈ 6.19 µM) | MIC [7]: 1 µg/mL (≈ 3.09 µM) | MIC [8]: 1 µg/mL (≈ 3.09 µM)

Cc1cc(CO)cc2ccc(CO)c(/C=C\C=C\C(=O)O)c12
MIC [1]: > 64 µg/mL | MIC [2]: > 64 µg/mL | MIC [3]: > 64 µg/mL | MIC [4]: > 64 µg/mL | MIC [5]: > 64 µg/mL | MIC [6]: > 64 µg/mL | MIC [7]: > 64 µg/mL | MIC [8]: > 64 µg/mL

Cc1cc(CO)cc2ccc(CO)c(/C=C/C=C/C(=O)O)c12
MIC [1]: > 64 µg/mL | MIC [2]: > 64 µg/mL | MIC [3]: > 64 µg/mL | MIC [4]: 64 µg/mL (≈ 215 µM) | MIC [5]: > 64 µg/mL | MIC [6]: > 64 µg/mL | MIC [7]: > 64 µg/mL | MIC [8]: > 64 µg/mL

Cc1ccc2c(c1/C=C/C=C/C(=O)O)[C@H](C)C[C@H](C)[C@@H]2O
MIC [1]: 4 µg/mL (≈ 14 µM) | MIC [2]: 32 µg/mL (≈ 112 µM) | MIC [3]: 64 µg/mL (≈ 223 µM) | MIC [4]: 32 µg/mL (≈ 112 µM) | MIC [5]: 32 µg/mL (≈ 112 µM) | MIC [6]: > 64 µg/mL | MIC [7]: 64 µg/mL (≈ 223 µM) | MIC [8]: > 64 µg/mL
